# Data from US20210222123A1, “IN VITRO EXPANSION OF DOPAMINERGIC SUBTYPE NEURONAL PROGENITORS DERIVED FROM PLURIPOTENT STEM CELLS” (Wisconsin Alumni Research Foundation, priority 2019, published 2021).
# Read-outs that look alike come from different tables or passages of the source.
# What was measured:
# DA NPCs [1] = format: cell-based
# From the text: FGF8 and SHH are not sufficient for expanding DA NPCs: To determine if and how the DA NPCs can be expanded, a CKK8-based assay for quantifying cell numbers was first established. This assay was based on the absorbance readout from a plate reader to estimate the total cell number by monitoring mitochondrial activity, which was used for primary screening/testing for candidate molecules and validating the hits (FIG. 2A).
# The optimal seeding density was first determined by plating increasing numbers of DA NPCs to each well. […] The absorbance reached a plateau when the seeding density was beyond 120,000 cell/well (FIG. 2B), and 20,000 cells/well were used for subsequent assays. Using this optimal seeding density (20,000/well), well-to-well and plate-to-plate variation (FIG. 2C) was examined. There were no obvious well-to-well and plate-to-plate variations (FIG. 2C).
# Chemical screening identifies an additional compound that expands DA NPCs: The chemical screening platform was set up using FGF8+SHH as a basal condition, FGF8+SHH+DMSO as a control, and FGF8+SHH+1 as the screening mode. With the standardized screening platform (FIG. 3A), 1,200 small molecules (Tocris Total) were screened and the top 5 candidate compounds that increased the absorbance by >2 folds over the median absorbance (FIG. 3B) were identified. […] induced a 5-fold expansion on top of FGF8+SHH (FIG. 3D). We referred to it as the “FSW” cocktail.
# Generation and expansion of DA NPCs: DA NPCs were generated as previously described, in particular FGF8b was added from Day 9 (Chen et al., 2016; Xi et al., 2012) (FIG. 1A). The generated DA NPCs were passaged at 10^6 cells/well on a MATRIGEL™ (1:30; PBS diluted and store in 4° C. for use in 2 weeks) coated 6-well plate as the first passage. After overnight, incubation, the medium was switched to the FSCW cocktail in the expansion medium. FSCW cocktail contained FGF8b (50 ng/ml; Peprotech), SHH (25 ng/ml; Peprotech), CHIR (0.6 μM; Tocris) and WNT-C59 (0.5 μM: Tocris). The expansion medium consisted of DF12 basal medium (ThermoFisher), B27 (100×; ThermoFisher), Glutamax (100×; ThermoFisher) and NEAA (100×; ThermoFisher). The cells were passaged every 5 days at the ratio of 1:3. To digest the cells, the cultures were incubated in PBS-diluted EDTA (1:100; Thermo) at 37° C. for 5 minutes before lifting the cells by adding 2 ml DF12 basal medium using cell lifter (Coring) and collecting the cells into a centrifuge tube. Following centrifugation at 1000 rpm for 2 minutes and removal of the supernatant, the cells were resuspended in the expansion medium with FSCW cocktail and seeded onto the coated plates as described above. Y27632 (10 uM; Tocris) was added overnight to improve cell survival.
# DA NPCs [2] = assay: DA NPC identity by immunostaining of DA marker co-expression; format: cell-based, human
# Experimental: Immunostaining and Quantification: Cells on coverslips/wells were rinsed with PBS and fixed in 4% paraformaldehyde for 20 minutes. After rinsing with PBS twice, cells were treated with 0.3% Triton for 10 min followed by 10% donkey serum for 1 hour before incubating with primary antibodies overnight at 4° C. Cells were then incubated for 1 hour at room temperature with fluorescently-conjugated secondary antibodies (Life Technologies). The nuclei were stained with Hoechst (Ho) (Sigma-Aldrich). Images were taken with a Nikon A1R-Si laser-scanning confocal microscope (Nikon, Tokyo, Japan). The primary antibodies used include the followings: Goat anti-OTX2 (1:1000, R&D), Rabbit anti-LMX1A (1:500, Abcam), […], Goat anti-FOXA2 (1:500, Santa Cruz), Mouse anti-EN1 (1:200, 4G11-C, DSHB), Rat anti-Corin (1:100, R&D Systems), Rabbit anti-TH (1:500, Pel-Freez Biologicals), Mouse anti-TUJ1 (1:500, Santa Cruz Biotechnology), Mouse anti-MAP2 (1:200, Sigma-Aldrich), Rabbit anti-GIRK2 (1:80, Alomone Labs), Rabbit anti-SOX6 (1:1000, Sigma-Aldrich), Mouse anti-Stem121 (1:500, Clonetech). For quantifying DA NPC populations, cells were counted among the total Hoechst labeled nuclei. Three independent cultures (n=3) were analyzed.
# [3] = FGF2 alone, 10 to 200 ng/ml, one passage in 5 days
compound,measurement,setting,value
"Cc1c[nH]c(-c2cnc(NCCNc3ccc(C#N)cn3)nc2-c2ccc(Cl)cc2Cl)n1 [CHIR, CHIR99021]",expansion of DA NPCs,"DA NPCs [1]; CHIR alone, range of doses",expanded the DA NPCs
same,expansion of DA NPCs,DA NPCs [1]; CHIR at a low dose (0.6 μM),expanded the DA NPCs
same,dose window in which DA NPC identity (co-expression of LMX1A and OTX2) was retained,DA NPCs [2]; CHIR alone,0.6 µM
same,DA identity,"DA NPCs [2]; CHIR alone, concentrations lower or higher than 0.6 μM",loss of DA identity
same,cellular identity of DA NPCs,DA NPCs [2]; CHIR at a low dose (0.6 μM),did not alter their cellular identity
Cc1cc(-c2ccc(CC(=O)Nc3ccc(-c4cccnc4)cc3)cc2)ccn1 [WNT-C59],expansion on top of FGF8+SHH,"DA NPCs [1]; WNT-C59 ""At 2"" (unit not given), FSW cocktail",5 fold
same,concentration of maximum effect in the cocktail,DA NPCs [1]; WNT-C59 titration in FSCW cocktail,0.5 µM
same,DA identity after induced expansion (co-expression of LMX1A and OTX2),"DA NPCs [2]; on top of FGF8+SHH, 1 passage, 5 days, ratio 1:3",maintained DA identity
FGF2: growth factor reported for expanding pan-NPCs or specified NPCs,cell proliferation,DA NPCs [1]; [3],induced dramatic cell proliferation
same,DA NPC identity (co-expression of LMX1A and OTX2),DA NPCs [2]; [3],loss of co-expression of LMX1A and OTX2
